Reference: patent publication US20240252673A1, “ANTI-TISSUE FACTOR ANTIBODY-DRUG CONJUGATES AND THEIR USE IN THE TREATMENT OF CANCER” (priority 2017, published 2024)

Key:
Assay type in all cases: in vivo, human
[1] = Phase I/II dose-escalation study: plasma pharmacokinetics; settings: cycle 1, plasma, geometric mean (% CV)
Method: A first-in-human phase I/II dose-escalating study following a 3+3 dose-escalation design was conducted in order to test the safety of tisotumab vedotin in 27 subjects with locally advanced and/or metastatic cancer of various types including cervical cancer (FIG. 2). Tisotumab vedotin was administered by intravenous infusion at doses ranging from 0.3 mg/kg to 2.2 mg/kg on day 1 of a 21-day cycle for four cycles (i.e., each treatment cycle was 3 weeks). Patients with stable disease (SD) or better at the end of four cycles had the option to continue treatment with tisotumab vedotin for eight additional cycles (FIG. 2). Tumor evaluations were performed by CT scans every six weeks. In order to qualify for SD, results of the CT scan scheduled for week six needed to be SD or better. Two CT scans were performed outside the per-protocol defined window.
A primary objective of the study was to assess the safety and tolerability in a mixed population of patients with specified solid tumors. Adverse event (AE) severity was graded according to Common Terminology Criteria for Adverse Events (CTCAE) version 4.03. Secondary objectives of the study included determining the pharmacokinetic (PK) profile of tisotumab vedotin and preliminary evaluation of anti-tumor activity as assessed according to Response Evaluation Criteria in Solid Tumors [RECIST] version 1.1. Dose-limiting toxicities (DLTs) were determined during the first cycle and were defined as grade≥3 events possibly related to tisotumab vedotin. […] Tumor biopsies were required at baseline for TF expression which was assessed by immunohistochemistry utilizing tisotumab. TF staining intensity was determined using the H-scoring system.
The geometric means (% CV) of the time to reach Cmax (Tmax)(hr), maximum concentration (Cmax)(ng/mL), and area under the concentration time curve (AUC)0-t (hr*ng/mL) was measured for the pharmacokinetics (PK) portion of the study (Table 3). Low levels of unconjugated MMAE were measured in systemic circulation (FIG. 4).

[2] = tested on: relapsed, recurrent and/or metastatic cervical cancer; assay: Phase IIa single arm trial: anti-tumor activity per RECIST v1.1; settings: 2.0 mg/kg q3w
Method: A Phase IIa single arm, multicenter trial investigated the efficacy, safety and tolerability of 2.0 mg/kg tisotumab vedotin in patients with relapsed, recurrent and/or metastatic cervical cancer. A total of 34 patients (n=34) were enrolled and received at least 1 dose of tisotumab vedotin. Each eligible patient was assigned to receive an intravenous (IV) infusion dose of tisotumab vedotin at a concentration of 2.0 mg/kg on day 1 of a 21-day cycle (i.e., each treatment cycle was 3 weeks (q3w)).
A primary objective of the study was to assess safety and tolerability of tisotumab vedotin. Adverse event (AE) severity was graded according to CTCAE version 4.03. A secondary objective was preliminary evaluation of anti-tumor activity durability as assessed according to RECIST version 1.1. Tumor evaluations were performed by CT scans every six weeks.

[3] = tested on: tisotumab vedotin treated patients; assay: Adverse events of special interest reported in tisotumab vedotin treated patients
Description: Three adverse events of special interest are ocular adverse events, adverse events of peripheral neuropathy, and adverse events of bleeding. […] Severe cases (CTCAE grade 3) of conjunctivitis and keratitis are observed, however implementation of a comprehensive mitigation plan and preventive measures substantially reduce both the frequency and severity of ocular adverse reactions. In order to prevent ocular AEs, the following ocular pre-medication guidelines are followed: use of preservative-free lubricating eye drops from the start of treatment with tisotumab vedotin until the end of treatment; avoid use of contact lenses while treated with tisotumab vedotin; use of refrigerator-based eye cooling pads during infusion, e.g. THERA PEARL Eye Mask or similar, to be applied immediately before infusion in accordance with the instructions provided with the eye cooling pads; administration of local ocular vasoconstrictor before infusion (brimonidine tartrate 0.2% eye drops or similar, 3 drops in each eye immediately prior to start of infusion; otherwise to be used in accordance with the product prescribing information).
A mitigation plan, including dose reduction (see Table 9) and dose delay (i.e., hold dosing until event has improved to ≤grade 1), is in place to prevent onset of peripheral neuropathy as well as deterioration of pre-existing conditions. For AEs of bleeding: Bleeding events are considered of special interest due to the mode of action of tisotumab vedotin. […] Excluding epistaxis, no causal relation has been established for the majority of the reported bleeding events and treatment with tisotumab vedotin.

[4] = tested on: relapsed, recurrent and/or metastatic cervical cancer; assay: Phase IIa single arm trial: anti-tumor activity per RECIST v1.1

## tisotumab vedotin
[1]; 0.3 mg/kg, N 3
  AUC0-t: 59216.8 (3%) hr * ng/ml
  Cmax: 4782.7 (12%) ng/ml
  Tmax: 1.5 (73%) hr
[1]; 0.6 mg/kg, N 3
  AUC0-t: 368432.7 (8%) hr * ng/ml
  Cmax: 12195.3 (10%) ng/ml
  Tmax: 1.2 (13%) hr
[1]; 0.9 mg/kg, N 3
  AUC0-t: 601926.2 (17%) hr * ng/ml
  Cmax: 19811.6 (17%) ng/ml
  Tmax: 1.3 (12%) hr
[1]; 1.2 mg/kg, N 3
  AUC0-t: 1084672.7 (9%) hr * ng/ml
  Cmax: 34673.1 (19%) ng/ml
  Tmax: 1.3 (12%) hr
[1]; 1.5 mg/kg, N 3
  AUC0-t: 794988.4 (19%) hr * ng/ml
  Cmax: 23115.6 (21%) ng/ml
  Tmax: 1.1 (9.6%) hr
[1]; 1.8 mg/kg, N 3
  AUC0-t: 1504823.8 (50%) hr * ng/ml
  Cmax: 35416.3 (39%) ng/ml
  Tmax: 1.2 (14%) hr
[1]; 2.0 mg/kg, N 3
  AUC0-t: 1256379.7 (33%) hr * ng/ml
  Cmax: 32296.1 (22%) ng/ml
  Tmax: 1.2 (8%) hr
[1]; 2.2 mg/kg, N 6
  AUC0-t: 2037070.5 (34%) hr * ng/ml
  Cmax: 55530.3 (10%) ng/ml
  Tmax: 1.1 (13%) hr
[2]; 34 patients
  patients withdrew from treatment due to disease progression: 16 n
[2]; N = 34
  Median DoR for confirmed and unconfirmed responses: ^eMedian DoR of 5.4 months for confirmed and unconfirmed responses.
  Median PFS: 6.4 months
  confirmed PR: 8
[2]; N = 34, 1 of which is still ongoing
  unconfirmed PR: 3
[2]; N = 34, 95% Confidence interval 17%-50%
  Objective response rate (ORR): 32 % of total patients
[2]; N = 34, clinical benefit after 12 weeks, 95% Confidence interval 35%-65%
  DCR (CR + PR + SD): 50 % of total patients
[2]; cervical cancer cohort
  efficacy, overall conclusion: robust efficacy
[3]; human, in vivo
  AEs of grade 1-2 conjunctivitis: frequently reported
  impact on activated partial thromboplastin time (aPTT) or prothrombin time (PT): no major impact
[3]; leading cause of permanent discontinuation
  peripheral neuropathy, grade of the reported cases: majority of the reported cases are grade 1-2
[3]; nearly all of the cases are grade 1
  Epistaxis: most common reported AE
[4]; 2.0 mg/kg q3w, N = 34
  Median DoR: 8.3 months
  Objective response rate (ORR): 11 n
[4]; 2.0 mg/kg q3w, N = 34, clinical benefit after 12 weeks
  DCR (CR + PR + SD): 17 n
[4]; expanded cohort, all efficacy-evaluable patients, N 51
  ORR, combined unconfirmed + confirmed: 16 N
[4]; expanded cohort, all efficacy-evaluable patients, N 51, 95% CI 19-46
  ORR, combined unconfirmed + confirmed: 31%
[4]; histology Adenocarcinoma, N 18
  ORR, combined unconfirmed + confirmed: 4 N
[4]; histology Adenocarcinoma, N 18, 95% CI 6-48
  ORR, combined unconfirmed + confirmed: 22%
[4]; histology Adenosquamous, N 4
  ORR, combined unconfirmed + confirmed: 2 N
[4]; histology Adenosquamous, N 4, 95% CI 7-93
  ORR, combined unconfirmed + confirmed: 50%
[4]; histology Other, N 2
  ORR, combined unconfirmed + confirmed: 1 N
[4]; histology Other, N 2, 95% CI 1-99
  ORR, combined unconfirmed + confirmed: 50%
[4]; histology Squamous, N 27
  ORR, combined unconfirmed + confirmed: 9 N
[4]; histology Squamous, N 27, 95% CI 17-54
  ORR, combined unconfirmed + confirmed: 33%
[4]; prior GOG 240 regimen No, N 14
  ORR, combined unconfirmed + confirmed: 4 N
[4]; prior GOG 240 regimen No, N 14, 95% CI 8-58
  ORR, combined unconfirmed + confirmed: 29%
[4]; prior GOG 240 regimen Yes, N 37
  ORR, combined unconfirmed + confirmed: 12 N
[4]; prior GOG 240 regimen Yes, N 37, 95% CI 18-50
  ORR, combined unconfirmed + confirmed: 32%
[4]; prior bevacizumab No, N 11
  ORR, combined unconfirmed + confirmed: 4 N
[4]; prior bevacizumab No, N 11, 95% CI 11-69
  ORR, combined unconfirmed + confirmed: 36%
[4]; prior bevacizumab Yes, N 40
  ORR, combined unconfirmed + confirmed: 12 N
[4]; prior bevacizumab Yes, N 40, 95% CI 17-47
  ORR, combined unconfirmed + confirmed: 30%
[4]; prior lines of systemic therapy 1, N 23
  ORR, combined unconfirmed + confirmed: 8 N
[4]; prior lines of systemic therapy 1, N 23, 95% CI 16-57
  ORR, combined unconfirmed + confirmed: 35%
[4]; prior lines of systemic therapy 2, N 17
  ORR, combined unconfirmed + confirmed: 6 N
[4]; prior lines of systemic therapy 2, N 17, 95% CI 14-62
  ORR, combined unconfirmed + confirmed: 35%
[4]; prior lines of systemic therapy 3-4, N 11
  ORR, combined unconfirmed + confirmed: 2 N
[4]; prior lines of systemic therapy 3-4, N 11, 95% CI 2-52
  ORR, combined unconfirmed + confirmed: 18%
[4]; prior taxane No, N 3
  ORR, combined unconfirmed + confirmed: 1 N
[4]; prior taxane No, N 3, 95% CI 1-91
  ORR, combined unconfirmed + confirmed: 33%
[4]; prior taxane Yes, N 48
  ORR, combined unconfirmed + confirmed: 15 N
[4]; prior taxane Yes, N 48, 95% CI 19-46
  ORR, combined unconfirmed + confirmed: 31%
